Measured values from PubChem BioAssay (NCI).
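Following 48 hours of exposure in 96-well plates, responses at five concentrations were used to interpolate endpoints linearly. At the GI50, growth is halved. The concentration for full growth arrest is given as TGI.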

Key:
Experiment in all cases: growth of human tumour cells (NCI), 48 h
RPMI-8226 leukemia = system: RPMI-8226 leukemia
SR leukemia = system: SR leukemia
SK-MEL-2 melanoma = system: SK-MEL-2 melanoma
T-47D breast = system: T-47D breast
SK-OV-3 ovarian = system: SK-OV-3 ovarian
SF-268 CNS = system: SF-268 CNS
786-0 renal = system: 786-0 renal
NCI-H226 lung = system: NCI-H226 lung
TK-10 renal = system: TK-10 renal
HCT-116 colon = system: HCT-116 colon
MALME-3M melanoma = system: MALME-3M melanoma
HOP-92 NSCLC = system: HOP-92 NSCLC
MDA-MB-231 breast = system: MDA-MB-231 breast
CAKI-1 renal = system: CAKI-1 renal
ACHN renal = system: ACHN renal
KM12 colon = system: KM12 colon
SN12C renal = system: SN12C renal
COLO 205 colon = system: COLO 205 colon
SNB-19 CNS = system: SNB-19 CNS
PC-3 prostate = system: PC-3 prostate
UACC-62 melanoma = system: UACC-62 melanoma
NCI-H522 lung = system: NCI-H522 lung
HT29 colon = system: HT29 colon
SF-539 CNS = system: SF-539 CNS
M14 melanoma = system: M14 melanoma
MOLT-4 leukemia = system: MOLT-4 leukemia
NCI-H23 lung = system: NCI-H23 lung
UACC-257 melanoma = system: UACC-257 melanoma
BT-549 breast = system: BT-549 breast

OCc1ccc(-c2ccc(-c3ccc(CO)o3)o2)o1
TGI (RPMI-8226 leukemia): > 100 µM | GI50 (SR leukemia): > 100 µM | TGI (SR leukemia): > 100 µM | GI50 (SK-MEL-2 melanoma): 38.8 µM | TGI (SK-MEL-2 melanoma): 97.1 µM | GI50 (T-47D breast): 22.7 µM | TGI (T-47D breast): > 100 µM | GI50 (SK-OV-3 ovarian): > 83.3 µM | TGI (SK-OV-3 ovarian): > 100 µM | GI50 (SF-268 CNS): > 61.7 µM | TGI (SF-268 CNS): > 100 µM | GI50 (786-0 renal): 35.3 µM | TGI (786-0 renal): > 100 µM | GI50 (NCI-H226 lung): 0.576 µM | TGI (NCI-H226 lung): 2.59 µM | GI50 (TK-10 renal): 2.63 µM | TGI (TK-10 renal): 19.8 µM | GI50 (HCT-116 colon): > 88.9 µM | TGI (HCT-116 colon): > 100 µM | GI50 (MALME-3M melanoma): 8.22 µM | TGI (MALME-3M melanoma): 69.6 µM | GI50 (HOP-92 NSCLC): > 49.6 µM | TGI (HOP-92 NSCLC): > 100 µM | GI50 (MDA-MB-231 breast): 33.1 µM | TGI (MDA-MB-231 breast): > 100 µM | GI50 (CAKI-1 renal): > 100 µM | TGI (CAKI-1 renal): > 100 µM | GI50 (ACHN renal): 35.9 µM | TGI (ACHN renal): > 100 µM | GI50 (KM12 colon): > 100 µM | TGI (KM12 colon): > 100 µM | GI50 (SN12C renal): > 100 µM | TGI (SN12C renal): > 100 µM | GI50 (COLO 205 colon): 18.6 µM | TGI (COLO 205 colon): 48.2 µM | GI50 (SNB-19 CNS): > 90.8 µM | TGI (SNB-19 CNS): > 100 µM | GI50 (PC-3 prostate): > 100 µM | TGI (PC-3 prostate): > 100 µM | GI50 (UACC-62 melanoma): 16.7 µM | TGI (UACC-62 melanoma): > 100 µM | GI50 (NCI-H522 lung): > 100 µM | TGI (NCI-H522 lung): > 100 µM | GI50 (HT29 colon): > 85.9 µM | TGI (HT29 colon): > 100 µM | GI50 (SF-539 CNS): > 100 µM | TGI (SF-539 CNS): > 100 µM | GI50 (M14 melanoma): > 100 µM | TGI (M14 melanoma): > 100 µM | GI50 (MOLT-4 leukemia): > 100 µM | TGI (MOLT-4 leukemia): > 100 µM | GI50 (NCI-H23 lung): > 100 µM | TGI (NCI-H23 lung): > 100 µM | GI50 (UACC-257 melanoma): 2.85 µM | TGI (UACC-257 melanoma): 11.9 µM | GI50 (BT-549 breast): > 100 µM | TGI (BT-549 breast): > 100 µM
